Target: T1, human FOXO1 (constitutively active form Thr24Ala, Ser256Ala, Ser319Ala) (Homo sapiens, UniProt Q12778, S256A/S319A/T24A)
T1 construct: expressed in transfected cells; host or cells: HEK293 cells transfected with pcDNA3.1 plasmid
Test: FOXO1 inhibitor activity assay: cell-based transcriptional (luciferase) reporter assay in HEK293 cells
Conditions: HEK293 cells transfected with insulin response element firefly luciferase reporter, FOXO1 and Renilla luciferase; 10-point dose response 50 μM to 2.5 nM; 24 hours
In short: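 IC50 and maximal inhibition were fitted by 4-parameter logistic regression on normalized firefly/Renilla luciferase ratios. The 0% reference used RFP in place of FOXO1, and the 100% reference was DMSO-only with all plasmids.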

T1 sequence (Q12778 whole entry T24A/S256A/S319A): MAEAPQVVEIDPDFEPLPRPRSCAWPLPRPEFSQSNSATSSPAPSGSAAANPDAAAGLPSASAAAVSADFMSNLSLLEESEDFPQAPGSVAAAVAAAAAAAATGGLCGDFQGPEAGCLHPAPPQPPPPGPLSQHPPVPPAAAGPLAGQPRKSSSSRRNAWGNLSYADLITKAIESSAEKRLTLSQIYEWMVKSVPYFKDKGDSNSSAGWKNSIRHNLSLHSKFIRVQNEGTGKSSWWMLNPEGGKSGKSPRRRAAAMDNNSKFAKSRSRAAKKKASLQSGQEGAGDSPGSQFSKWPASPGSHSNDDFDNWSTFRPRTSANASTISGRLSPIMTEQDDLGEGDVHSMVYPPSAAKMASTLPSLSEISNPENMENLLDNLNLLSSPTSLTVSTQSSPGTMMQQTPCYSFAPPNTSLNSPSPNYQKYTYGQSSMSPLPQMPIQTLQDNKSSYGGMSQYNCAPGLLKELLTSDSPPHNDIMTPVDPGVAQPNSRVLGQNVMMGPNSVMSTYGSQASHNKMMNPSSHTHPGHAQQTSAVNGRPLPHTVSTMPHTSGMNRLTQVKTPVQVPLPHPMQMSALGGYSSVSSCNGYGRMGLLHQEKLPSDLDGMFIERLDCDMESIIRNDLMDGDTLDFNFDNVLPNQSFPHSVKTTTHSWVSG

| Structure (SMILES) | IC50 |
| --- | --- |
| Cn1nc(NC(=O)c2ccc(N3CCN(C4COC4)CC3)nc2)cc1-c1nc2cc(F)ccc2[nH]1 [Compound A-160] | 0.3 to 1 µM |
| Cn1nc(NC(=O)c2ccc(N3CCN(C4COC4)CC3)nc2)cc1-c1nc2ccccc2[nH]1 [Compound A-203, N-[5-(1H-benzimidazol-2-yl)-1-methyl-pyrazol-3-yl]-6-[4-(oxetan-3-yl)piperazin-1-yl]pyridine-3-carboxamide] | 0.1 to 0.3 µM |
| Cn1nc(NC(=O)c2ccc(N3CCOCC3)nc2)cc1-c1nc2ccccc2[nH]1 [Compound A-210, N-[5-(1H-benzimidazol-2-yl)-1-methyl-pyrazol-3-yl]-6-morpholino-pyridine-3-carboxamide] | < 0.1 µM |
| Cn1nc(NC(=O)c2ccc(N3CCN(CCO)CC3)nc2)cc1-c1nc2cc(F)ccc2[nH]1 [Compound A-150] | 0.1 to 0.3 µM |
| CC(O)CN1CCN(c2ccc(C(=O)Nc3cc(-c4nc5ccccc5[nH]4)n(C)n3)cc2)CC1 (stereo not drawn) [A-257, N-[5-(1H-benzimidazol-2-yl)-1-methyl-pyrazol-3-yl]-4-[4-(2-hydroxypropyl)piperazin-1-yl]benzamide] | < 0.1 µM |
| Cn1nc(NC(=O)c2ccc(N3CCOCC3CO)nc2)cc1-c1nc2ccccc2[nH]1 (stereo not drawn) [Compound A-238, N-[5-(1H-benzimidazol-2-yl)-1-methyl-pyrazol-3-yl]-6-[3-(hydroxymethyl)morpholin-4-yl]pyridine-3-carboxamide] | 0.1 to 0.3 µM |
| CC(=O)N1CCN(c2ccc(C(=O)Nc3cc(-c4nc5ccccc5[nH]4)n(C)n3)cn2)CC1CO (stereo not drawn) [Compound A-254, 6-14-acetyl-3-(hydroxymethyl)piperazin-1-yl-N-[5-(1H-benzimidazol-2-yl)-1-methyl-pyrazol-3-yl]pyridine-3-carboxamide] | > 1 µM |
| Cn1nc(NC(=O)c2ccc(N3CCC(O)C3)nc2)cc1-c1nc2ccccc2[nH]1 (stereo in doubt) [Compound A-227, N-[5-(1H-benzimidazol-2-yl)-1-methyl-pyrazol-3-yl]-6-[(3R)-3-hydroxy-pyrrolidin-1-yl]pyridine-3-carboxamide] | 0.3 to 1 µM |
| Cn1nc(NC(=O)c2ccc(N3CCN(CCO)CC3)nc2)cc1-c1nc2cccc(F)c2[nH]1 [Compound A-158] | 0.1 to 0.3 µM |
| COC1CCN(c2ccc(C(=O)Nc3cc(-c4nc5cc(F)ccc5[nH]4)n(C)n3)cn2)CC1 [Compound A-153, N-[5-(5-fluoro-1H-benzimidazol-2-yl)-1-methyl-pyrazol-3-yl]-6-(4-methoxy-1-piperidyl)pyridine-3-carboxamide] | 0.1 to 0.3 µM |
| CN1CCN(c2ccc(C(=O)Nc3cc(-c4nc5ccccc5[nH]4)n(C)n3)cn2)CC1 [Compound A-209, N-[5-(1H-benzimidazol-2-yl)-1-methyl-pyrazol-3-yl]-6-(4-methyl-piperazin-1-yl)pyridine-3-carboxamide] | < 0.1 µM |
| C[C@@H]1COCCN1c1ccc(C(=O)Nc2cc(-c3nc4ccccc4[nH]3)n(C)n2)cn1 [Compound A-229, N-[5-(1H-benzimidazol-2-yl)-1-methyl-pyrazol-3-yl]-6-[(3R)-3-methylmorpholin-4-yl]pyridine-3-carboxamide] | 0.1 to 0.3 µM |
| Cn1nc(NC(=O)c2ccc(N3CCO[C@H](CO)C3)nc2)cc1-c1nc2ccccc2[nH]1 [Compound A-251, N-[5-(1H-benzimidazol-2-yl)-1-methyl-pyrazol-3-yl]-6-[(2S)-2-(hydroxymethyl)morpholin-4-yl]pyridine-3-carboxamide] | < 0.1 µM |
| C[C@H]1COCCN1c1ccc(C(=O)Nc2cc(-c3nc4ccccc4[nH]3)n(C)n2)cn1 [Compound A-230, N-[5-(1H-benzimidazol-2-yl)-1-methyl-pyrazol-3-yl] -6-[(3S)-3-methylmorpholin-4-yl]pyridine-3-carboxamide] | 0.1 to 0.3 µM |

More lines, now with the values ahead:

| IC50 | Structure (SMILES) |
| --- | --- |
| 0.1 to 0.3 µM | Cn1nc(NC(=O)c2ccc(N3CCN(CCO)CC3)nc2)cc1-c1nc2ccccc2[nH]1 [Compound A-204, N-[5-(1H-benzimidazol-2-yl)-1-methyl-pyrazol-3-yl]-6-[4-(2-hydroxy-ethyl)piperazin-1-yl]pyridine-3-carboxamide] |
| 0.1 to 0.3 µM | CN1CCN(c2cnc(C(=O)Nc3cc(-c4nc5ccccc5[nH]4)[nH]n3)cn2)CC1 [Compound A-179, N-[5-(1H-benzimidazol-2-yl)-1H-pyrazol-3-yl]-5-(4-methylpiperazin-1-yl)pyrazine-2-carboxamide] |
| 0.1 to 0.3 µM | COCCOc1ccc(C(=O)Nc2cc(-c3nc4ccccc4[nH]3)[nH]n2)cc1C#N [Compound A-129, N-[5-(1H-benzimidazol-2-yl)-1H-pyrazol-3-yl]-3-cyano-4-(2-methoxyethoxy)benzamide] |
| < 0.1 µM | COc1ccc(C(=O)Nc2cc(-c3nc4cc(N5CCOCC5)ccc4[nH]3)[nH]n2)cc1Cl [Compound A-265, 3-chloro-4-methoxy-N-[15-(5-morpholino-1H-benzimidazol-2-yl)-1H-pyrazol-3-yl]benzamide] |
| 0.1 to 0.3 µM | COc1ccc(C(=O)Nc2cc(-c3nc4ccc(OC)c(F)c4[nH]3)[nH]n2)cc1Cl [Compound A-106, 3-chloro-N-[5-(7-fluoro-6-methoxy-1H-benzimidazol-2-yl)-1H-pyrazol-3-yl]-4-methoxy-benzamide] |
| < 0.1 µM | Cn1nc(NC(=O)c2ccc(OCCO)c(Cl)c2)cc1-c1nc2cccc(F)c2[nH]1 [Compound A-165, 3-chloro-N-[5-(7-fluoro-1H-benzimidazol-2-yl)-1-methyl-pyrazol-3-yl]-4-(2-hydroxyethoxy)benzamide] |
| < 0.1 µM | COC1CN(c2ccc(C(=O)Nc3cc(-c4nc5cc(F)ccc5[nH]4)[nH]n3)cn2)C1 [Compound A-132, N-[5-(5-fluoro-1H-benzimidazol-2-yl)-1H-pyrazol-3-yl]-6-(3-methoxy-azetidin-1-yl)pyridine-3-carboxamide] |
| < 0.1 µM | O=C(Nc1cc(-c2nc3ccccc3[nH]2)[nH]n1)c1ccc(N2CCN(CCO)CC2)cc1 [Compound A-181] |
| 0.1 to 0.3 µM | O=C(Nc1cc(-c2nc3cc(Cl)ccc3[nH]2)[nH]n1)c1ccc(OCCO)c(Cl)c1 [Compound A-121, 3-chloro-N-[5-(5-chloro-1H-benzimidazol-2-yl)-1H-pyrazol-3-yl]-4-(2-hydroxyethoxy)benzamide] |
| > 1 µM | COc1cc(F)c2[nH]c(-c3cc(NC(=O)c4ccc(N5CC(OC)C5)nc4)n[nH]3)nc2c1 [Compound A-188, N-[5-(7-fluoro-5-methoxy-1H-benzimidazol-2-yl)-1H-pyrazol-3-yl]-6-(3-methoxyazetidin-1-yl)pyridine-3-carboxamide] |
| 0.3 to 1 µM | COC[C@H](C)Nc1ccc(C(=O)Nc2cc(-c3nc4ccccc4[nH]3)[nH]n2)cn1 [Compound A-73, N-[5-(1H-benzimidazol-2-yl)-1H-pyrazol-3-yl]-6-[[(1S)-2-methoxy-1-methyl-ethyl]amino]pyridine-3-carboxamide] |
| < 0.1 µM | COCCOc1ccc(C(=O)Nc2cc(-c3nc4cc(F)ccc4[nH]3)n(C)n2)cc1Cl [Compound A-166, 3-chloro-N-[5-(5-fluoro-1H-benzimidazol-2-yl)-1-methyl-pyrazol-3-yl]-4-(2-methoxyethoxy)benzamide] |
| 0.1 to 0.3 µM | O=C(Nc1cc(-c2nc3cc(OC(F)(F)F)ccc3[nH]2)[nH]n1)c1ccc(OCCO)c(Cl)c1 [Compound A-116, 3-chloro-4-(2-hydroxyethoxy)-N-[5-[5-(trifluoromethoxy)-1H-benzimidazol-2-yl]-1H-pyrazol-3-yl]benzamide] |

Reference: US20230416228A1 (Forkhead Biotherapeutics, Inc., priority 2020, published 2023)
